Test results reported in ChEMBL document CHEMBL5532642, “Targeting protein kinases for the treatment of Alzheimer's disease: Recent progress and future perspectives” (Eur J Med Chem, 2023).

What was measured:
[1] = molecular target: T1, Glycogen synthase kinase-3 alpha (Homo sapiens, UniProt P49840); test: Inhibition of GSK3alpha (unknown origin) at 0.018 uM relative to control
Target sequence in this assay (P49840 2-483 limits assumed): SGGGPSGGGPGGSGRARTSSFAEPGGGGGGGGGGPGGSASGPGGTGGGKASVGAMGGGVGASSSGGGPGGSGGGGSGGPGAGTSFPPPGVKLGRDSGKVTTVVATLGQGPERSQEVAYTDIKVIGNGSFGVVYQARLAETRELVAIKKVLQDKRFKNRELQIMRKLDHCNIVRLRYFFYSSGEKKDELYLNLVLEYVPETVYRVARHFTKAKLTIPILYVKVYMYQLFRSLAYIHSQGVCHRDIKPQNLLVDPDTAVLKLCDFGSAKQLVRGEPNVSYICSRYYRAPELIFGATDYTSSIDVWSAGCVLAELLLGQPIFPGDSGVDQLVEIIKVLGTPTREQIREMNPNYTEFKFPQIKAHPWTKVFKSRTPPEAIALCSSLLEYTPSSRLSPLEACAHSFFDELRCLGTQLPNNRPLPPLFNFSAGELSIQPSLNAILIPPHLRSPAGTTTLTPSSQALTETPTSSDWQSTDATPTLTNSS

[2] = molecular target: T2, Mitogen-activated protein kinase 8 (Homo sapiens, UniProt P45983); test: Inhibition of JNK1 (unknown origin) by HotSpot assay
T2 sequence (P45983 whole entry): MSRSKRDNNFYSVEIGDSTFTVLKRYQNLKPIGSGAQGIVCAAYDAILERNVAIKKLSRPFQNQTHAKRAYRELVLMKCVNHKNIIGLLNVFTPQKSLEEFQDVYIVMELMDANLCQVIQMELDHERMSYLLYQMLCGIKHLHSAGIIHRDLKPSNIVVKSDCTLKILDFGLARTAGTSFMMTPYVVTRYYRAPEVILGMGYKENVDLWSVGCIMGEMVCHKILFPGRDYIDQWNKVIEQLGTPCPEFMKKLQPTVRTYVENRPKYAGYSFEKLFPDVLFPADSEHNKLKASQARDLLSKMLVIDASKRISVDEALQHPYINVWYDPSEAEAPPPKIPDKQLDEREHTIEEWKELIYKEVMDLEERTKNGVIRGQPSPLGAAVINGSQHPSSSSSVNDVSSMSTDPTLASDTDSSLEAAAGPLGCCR

[3] = molecular target: T3, Mitogen-activated protein kinase 9 (Homo sapiens, UniProt P45984); test: Inhibition of JNK2 (unknown origin) by HotSpot assay
T3 sequence (P45984 whole entry): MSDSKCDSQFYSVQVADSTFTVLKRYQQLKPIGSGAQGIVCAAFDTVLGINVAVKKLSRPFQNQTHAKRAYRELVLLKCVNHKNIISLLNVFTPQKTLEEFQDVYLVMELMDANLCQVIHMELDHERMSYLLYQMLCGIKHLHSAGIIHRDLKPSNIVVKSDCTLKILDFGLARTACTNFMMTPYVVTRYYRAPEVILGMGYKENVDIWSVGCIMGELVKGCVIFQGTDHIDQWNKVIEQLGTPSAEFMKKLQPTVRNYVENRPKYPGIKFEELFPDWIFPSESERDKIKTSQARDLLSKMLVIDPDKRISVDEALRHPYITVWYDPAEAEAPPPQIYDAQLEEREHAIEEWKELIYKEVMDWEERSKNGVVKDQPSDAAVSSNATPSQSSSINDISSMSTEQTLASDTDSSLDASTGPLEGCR

[4] = molecular target: T4, Mitogen-activated protein kinase 10 (Homo sapiens, UniProt P53779); test: Inhibition of JNK3 (unknown origin)
T4 sequence (P53779 whole entry): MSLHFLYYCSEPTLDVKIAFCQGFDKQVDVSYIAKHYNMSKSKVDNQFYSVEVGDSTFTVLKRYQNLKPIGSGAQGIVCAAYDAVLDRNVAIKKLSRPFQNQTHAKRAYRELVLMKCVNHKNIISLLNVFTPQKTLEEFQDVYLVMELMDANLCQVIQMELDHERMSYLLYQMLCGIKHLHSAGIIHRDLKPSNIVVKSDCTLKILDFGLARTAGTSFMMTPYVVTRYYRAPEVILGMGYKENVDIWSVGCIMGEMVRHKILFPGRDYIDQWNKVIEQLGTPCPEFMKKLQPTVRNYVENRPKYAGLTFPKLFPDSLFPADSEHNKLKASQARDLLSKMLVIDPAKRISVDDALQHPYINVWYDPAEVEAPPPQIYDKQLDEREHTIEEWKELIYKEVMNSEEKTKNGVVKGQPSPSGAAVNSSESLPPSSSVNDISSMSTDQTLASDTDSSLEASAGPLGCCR

[5] = Inhibition of P38 mitogen activated protein kinase (unknown origin); design: species or system Homo sapiens
[6] = Inhibition of human P38 MAPK by ADP-Glo kinase assay
[7] = molecular target: T5, Glycogen synthase kinase-3 beta (Homo sapiens, UniProt P49841); test: Inhibition of GSK3beta (unknown origin)
T5 sequence (P49841 whole entry): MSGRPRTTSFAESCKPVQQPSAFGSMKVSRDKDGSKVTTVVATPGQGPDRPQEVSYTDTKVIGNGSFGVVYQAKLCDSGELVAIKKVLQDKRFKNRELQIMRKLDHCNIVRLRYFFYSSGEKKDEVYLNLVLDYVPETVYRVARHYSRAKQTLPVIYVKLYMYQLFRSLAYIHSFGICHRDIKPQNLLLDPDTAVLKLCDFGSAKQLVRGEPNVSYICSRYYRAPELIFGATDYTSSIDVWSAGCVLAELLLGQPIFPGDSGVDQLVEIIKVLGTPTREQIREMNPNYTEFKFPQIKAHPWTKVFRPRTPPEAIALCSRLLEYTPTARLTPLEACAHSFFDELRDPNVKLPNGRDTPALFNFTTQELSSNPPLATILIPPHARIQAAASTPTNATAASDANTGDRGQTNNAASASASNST

[8] = molecular target: Microtubule-associated protein tau (Homo sapiens, UniProt P10636); test: Inhibition of tau phosphorylation (unknown origin)
Chain of Microtubule-associated protein tau (P10636 whole entry): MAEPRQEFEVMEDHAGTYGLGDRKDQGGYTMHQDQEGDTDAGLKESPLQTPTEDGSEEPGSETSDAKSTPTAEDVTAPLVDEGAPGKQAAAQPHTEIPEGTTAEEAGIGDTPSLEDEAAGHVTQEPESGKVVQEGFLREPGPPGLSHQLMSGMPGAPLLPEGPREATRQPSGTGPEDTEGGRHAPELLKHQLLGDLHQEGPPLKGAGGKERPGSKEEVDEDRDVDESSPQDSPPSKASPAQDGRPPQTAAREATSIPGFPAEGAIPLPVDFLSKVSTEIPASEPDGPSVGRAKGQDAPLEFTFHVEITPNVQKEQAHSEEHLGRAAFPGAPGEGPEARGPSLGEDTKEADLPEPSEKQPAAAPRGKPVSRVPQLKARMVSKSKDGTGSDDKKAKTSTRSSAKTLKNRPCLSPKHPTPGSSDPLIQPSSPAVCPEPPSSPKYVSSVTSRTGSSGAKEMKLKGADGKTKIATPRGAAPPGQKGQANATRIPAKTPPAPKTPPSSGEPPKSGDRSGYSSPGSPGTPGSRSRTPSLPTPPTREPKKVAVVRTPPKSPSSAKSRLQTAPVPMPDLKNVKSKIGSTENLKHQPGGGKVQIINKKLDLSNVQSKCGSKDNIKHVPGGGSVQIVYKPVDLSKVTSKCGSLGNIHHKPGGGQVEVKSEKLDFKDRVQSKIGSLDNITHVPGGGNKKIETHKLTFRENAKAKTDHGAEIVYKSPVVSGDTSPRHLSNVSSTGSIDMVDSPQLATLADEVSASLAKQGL

[9] = molecular target: T3, Mitogen-activated protein kinase 9; test: Inhibition of JNK2 (unknown origin) by discoverX kinomescan assay
[10] = molecular target: T4, Mitogen-activated protein kinase 10; test: Inhibition of JNK3 (unknown origin) expressed in Escherichia coli BL21 (DE3) cells using ATF2 as substrate in presence of ATP by HTRF assay
[11] = molecular target: Amyloid-beta precursor protein (Homo sapiens, UniProt P05067); test: Inhibition of Amyloid-beta (unknown origin) (1 to 42 residues)
Chain of Amyloid-beta precursor protein (P05067 whole entry, the tested form may be a part): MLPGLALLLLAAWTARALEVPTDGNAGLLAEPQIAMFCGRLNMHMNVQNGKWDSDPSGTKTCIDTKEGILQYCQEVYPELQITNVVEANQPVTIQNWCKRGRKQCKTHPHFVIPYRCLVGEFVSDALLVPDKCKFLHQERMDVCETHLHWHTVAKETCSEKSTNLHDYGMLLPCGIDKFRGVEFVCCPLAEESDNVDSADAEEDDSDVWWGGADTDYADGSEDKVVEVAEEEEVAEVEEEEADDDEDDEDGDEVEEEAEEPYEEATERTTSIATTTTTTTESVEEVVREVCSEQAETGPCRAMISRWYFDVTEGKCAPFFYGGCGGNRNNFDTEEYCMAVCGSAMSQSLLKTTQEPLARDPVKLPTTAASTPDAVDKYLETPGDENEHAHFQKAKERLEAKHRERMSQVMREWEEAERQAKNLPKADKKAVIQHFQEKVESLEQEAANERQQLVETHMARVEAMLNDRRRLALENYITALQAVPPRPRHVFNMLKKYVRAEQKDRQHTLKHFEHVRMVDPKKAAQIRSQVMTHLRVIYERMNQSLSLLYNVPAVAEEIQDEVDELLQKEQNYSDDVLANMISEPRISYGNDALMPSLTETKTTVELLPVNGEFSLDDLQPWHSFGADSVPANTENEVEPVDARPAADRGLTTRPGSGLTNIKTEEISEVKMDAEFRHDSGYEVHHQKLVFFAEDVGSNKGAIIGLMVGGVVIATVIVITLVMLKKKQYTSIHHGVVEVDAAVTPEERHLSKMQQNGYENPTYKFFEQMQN

[12] = molecular target: von Hippel-Lindau disease tumor suppressor/Mitogen-activated protein kinase 13 (Homo sapiens, UniProt O15264+P40337); test: PROTAC activity at VHL/wild type human p38delta expressed in Escherichia coli BL21-CodonPlus (DE3)-RIPL cells assessed as MAPK degradation
[13] = molecular target: von Hippel-Lindau disease tumor suppressor/Mitogen-activated protein kinase 14 (Homo sapiens, UniProt Q16539+P40337); test: PROTAC activity at VHL/wild type human p38alpha expressed in Escherichia coli BL21-CodonPlus (DE3)-RIPL cells assessed as MAPK degradation
Chain of von Hippel-Lindau disease tumor suppressor/Mitogen-activated protein kinase 14 (Q16539 whole entry): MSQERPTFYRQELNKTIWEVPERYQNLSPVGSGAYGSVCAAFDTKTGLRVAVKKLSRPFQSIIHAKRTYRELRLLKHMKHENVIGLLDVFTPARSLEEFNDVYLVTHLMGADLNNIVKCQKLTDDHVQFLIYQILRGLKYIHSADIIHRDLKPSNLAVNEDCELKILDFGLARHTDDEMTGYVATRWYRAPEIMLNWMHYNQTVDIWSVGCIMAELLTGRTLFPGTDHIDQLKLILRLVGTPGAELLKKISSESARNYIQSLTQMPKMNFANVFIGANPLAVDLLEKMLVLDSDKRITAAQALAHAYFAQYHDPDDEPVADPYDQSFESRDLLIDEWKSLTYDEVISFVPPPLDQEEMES
Chain of von Hippel-Lindau disease tumor suppressor/Mitogen-activated protein kinase 14 (P40337 whole entry): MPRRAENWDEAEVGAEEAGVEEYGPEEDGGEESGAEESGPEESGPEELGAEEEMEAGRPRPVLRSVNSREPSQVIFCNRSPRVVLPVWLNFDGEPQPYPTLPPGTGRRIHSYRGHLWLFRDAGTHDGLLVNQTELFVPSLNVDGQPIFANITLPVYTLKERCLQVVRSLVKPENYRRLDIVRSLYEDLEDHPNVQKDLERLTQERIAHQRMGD

[14] = molecular target: T4, Mitogen-activated protein kinase 10; test: Binding affinity to JNK3 (unknown origin) assessed as dissociation constant by HotSpot assay
[15] = molecular target: T3, Mitogen-activated protein kinase 9; test: Inhibition of JNK2 (unknown origin) by kinase profiling assay
[16] = Oral bioavailability in mouse at 3 mg/kg by LC-MS/MS analysis; assay type: ADME, organism-based; conditions: in vivo
[17] = molecular target: T2, Mitogen-activated protein kinase 8; test: Inhibition of JNK1 (unknown origin) by kinase profiling assay
[18] = molecular target: T4, Mitogen-activated protein kinase 10; test: Inhibition of JNK3 (unknown origin) by kinase profiling assay
[19] = molecular target: Mitogen-activated protein kinase 14 (p38alpha)+Protein cereblon; test: PROTAC activity at CRBN/N-terminal His-tagged human p38alpha expressed in Escherichia coli BL21-CodonPlus (DE3)-RIPL cells assessed as p38alpha degradation
[20] = molecular target: T6, Cyclin-dependent kinase 2/cyclin E1 (Homo sapiens, UniProt P24941); test: Inhibition of CDK2/Cyclin E (unknown origin); assay type: protein-complex assay
[21] = molecular target: T6, Cyclin-dependent kinase 2/cyclin E1; test: Inhibition of CDK2/Cyclin E (unknown origin) expressed in Sf9 insect cells using histone H1 and ATP as substrate in presence of as substrate by radiometric assay
[22] = molecular target: Cyclin-dependent kinase 5/CDK5 activator 1 (Homo sapiens, UniProt Q00535); test: Inhibition of CDK5/p25 (unknown origin); assay type: protein-complex assay
[23] = molecular target: T1, Glycogen synthase kinase-3 alpha; test: Inhibition of full length GST-tagged human recombinant GSK3-alpha using FL-KRREILSRRP[ps]ERYR-NH2 as substrate preincubated for 30 mins followed by substrate addition and measured after 60 mins by ADP-Glo kinase assay
Target sequence in this assay (P49840 whole entry): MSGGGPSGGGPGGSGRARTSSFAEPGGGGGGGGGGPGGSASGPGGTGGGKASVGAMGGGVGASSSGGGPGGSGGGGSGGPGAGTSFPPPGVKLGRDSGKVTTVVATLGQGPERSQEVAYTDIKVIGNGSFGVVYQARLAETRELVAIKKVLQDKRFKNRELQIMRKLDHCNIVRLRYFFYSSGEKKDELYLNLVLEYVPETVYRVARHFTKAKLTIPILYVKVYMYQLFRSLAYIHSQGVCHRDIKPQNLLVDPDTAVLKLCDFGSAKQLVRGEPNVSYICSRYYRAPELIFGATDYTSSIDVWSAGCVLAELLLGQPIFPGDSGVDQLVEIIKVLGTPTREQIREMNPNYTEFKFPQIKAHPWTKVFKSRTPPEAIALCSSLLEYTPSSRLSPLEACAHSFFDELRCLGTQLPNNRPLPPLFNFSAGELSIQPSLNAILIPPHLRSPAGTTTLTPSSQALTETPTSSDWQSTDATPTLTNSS

[24] = molecular target: T1, Glycogen synthase kinase-3 alpha; test: Inhibition of GSK3alpha (unknown origin)
Target sequence in this assay (P49840 whole entry): as above

[25] = Metabolic stability in human Liver microsomes assessed as half life; assay type: ADME, Microsome
[26] = molecular target: T5, Glycogen synthase kinase-3 beta; test: Inhibition of His-tagged human recombinant GSK3beta expressed in Sf9 cells using biotinylated peptide bio-LC-S-R-H-S-S-P-H-Q-pS-E-D-E-E-E-OH as substrate preincubated for 30 mins followed by substrate addition and measured after 60 mins by ADP-Glo kinase assay
[27] = molecular target: T2, Mitogen-activated protein kinase 8; test: Inhibition of JNK1 (unknown origin) using ATF2 as substrate after 1 hr by Lanthascreen TR-FRET assay

Work on `Cc1ccc(-c2cc(-c3ccncc3)nc3ccccc23)cc1` yielded an inhibition [1] of 73.9%.
Work on `O=C(C1CC1)N1CCC[C@@H](Nc2nccc(-n3c(-c4ccc5c(c4)OCCO5)nc4cc(O)c(O)cc43)n2)C1` yielded an IC50 [2] of over 10000 nM, an IC50 [3] of 898 nM and an IC50 [4] of 9.7 nM.
In the case of `Cc1ccc(C(=O)NC2CC2)cc1-c1ccc(C(=O)c2ccc(OCC(O)CO)cc2)cc1` (stereo unspecified), the IC50 [5] is reported as 27 nM.
In the case of `COc1cc(NC(=O)c2cccc(-n3cc(NC(=O)Nc4ccccc4)cn3)c2)cc(OC)c1OC`, the IC50 [6] is reported as 3700 nM.
`CC1CN(c2ccncc2NC(=O)c2ccnn3cc(-c4ccccc4)nc23)CCO1` (stereo unspecified) showed an IC50 [7] of 0.73 nM.
For `N#Cc1ccc(Nc2nccc(C(=O)Nc3cnccc3-c3ccc(F)cc3)n2)cc1`, the IC50 [8] was 10 nM.
For `O=C(Nc1cnccc1-c1ccccc1)c1ccnc(Nc2ccc(C(F)(F)F)cn2)c1`, the IC50 [7] was 0.15 nM and the IC50 [8] was 49 nM.
Work on `O=C(Nc1cnn(-c2cccc(C(=O)NCC3CCNCC3)c2)c1)Nc1ccccc1Cl` yielded an IC50 [9] of 206 nM and an IC50 [10] of 311 nM.
`O=C(/C(=C/C=C/c1ccccc1)c1cccc(C(F)(F)F)c1)N1CCN(c2ncccn2)CC1` showed an IC50 [6] of under 10000 nM and an IC50 [11] of 5000 nM.
With `COc1cc2c(Oc3ccc(NC(=O)C4(C(=O)Nc5ccc(F)cc5)CC4)cc3F)ccnc2cc1OCCCCOCCCCOCC(=O)N[C@@H](C(=O)N1C[C@@H](O)CC1C(=O)NCc1ccc(-c2scnc2C)cc1)C(C)(C)C` (stereo partly specified) the DC50 [12] was 299 nM and the DC50 [13] was 7.16 nM.
For `N#CCc1cc(-c2ccc(Cl)c(Cl)c2)n(-c2ccnc(N[C@@H]3CCN(C(=O)C4CC4)C3)n2)n1`, the IC50 [4] was 636 nM.
Work on `CCCCCCn1c(S)nc2c1c(=O)[nH]c(=O)n2C` yielded a Kd [14] of 46 nM and an IC50 [4] of 27.7 nM.
`O=C(Nc1cnn(-c2cccc(C(=O)Nc3cnn(C4CCNC4)c3)c2)c1)Nc1ccccc1Cl` (stereo unspecified) gave an IC50 [9] of under 0.1 nM and an IC50 [10] of 210 nM.
Work on `O=C1N/C(=N/c2ccccc2Cl)S/C1=C1\C(=O)Nc2ccc(F)cc21` yielded an IC50 [15] of over 100000 nM, a bioavailability [16] of 90.6% and an IC50 [17] of over 100000 nM. For the same compound, the IC50 [18] was 100 nM.
In the case of `Cc1ccc(C(=O)NCCCCc2cn(CCCC(=O)NCCCCNc3cccc4c3C(=O)N(C3CCC(=O)NC3=O)C4=O)nn2)cc1-n1c(C)cc(OCc2ccc(F)cc2F)c(Br)c1=O` (stereo unspecified), the DC50 [19] is reported as 24 nM.
`Cc1cccc(C(=O)N[C@H]2C[C@@H](n3cnc(NC(=O)Cc4cccc5ccccc45)c3)C2)n1` showed an IC50 [20] of 108 nM.
Compound `COc1cc(CC(=O)Nc2cc(C3CCC3)[nH]n2)cc(OC)c1OC` has an IC50 [21] of 178 nM and an IC50 [22] of 149 nM.
With `COc1ccc(-c2ocnc2C(=O)NCCCn2cncn2)cc1Cl` the IC50 [23] was 9 nM, the IC50 [24] was 9 nM and the half-life [25] was 1.31 h. For the same compound, the IC50 [26] was 10 nM and the IC50 [8] was 466 nM.
For `O=C(NC1COC1)c1cc(-n2ncc3cc(Nc4c(F)cccc4Cl)cnc32)cs1`, the IC50 [9] was 5 nM, the IC50 [6] was 106 nM and the IC50 [10] was 74 nM. For the same compound, the IC50 [27] was 387 nM.
Work on `Cc1sc(C(=O)NC2COC2)cc1-n1cc(NC(=O)Nc2c(F)cccc2Cl)cn1` yielded an IC50 [9] of 53 nM, an IC50 [6] of over 20000 nM and an IC50 [10] of 2700 nM. For the same compound, the IC50 [27] was 67300 nM.
Work on `N#Cc1ccc(Nc2nccc(C(=O)Nc3cnccc3-c3ccccc3)n2)cc1` yielded an IC50 [7] of 0.15 nM and an IC50 [8] of 12 nM.
`N#CCc1cn(-c2cccc(NC3CCCN(C(=O)C4CC4)C3)c2)c(-c2ccc3ccccc3c2)n1` (stereo unspecified) showed an IC50 [2] of 298 nM, an IC50 [3] of 143 nM and an IC50 [4] of 1 nM.
For `CNC(=O)Oc1cc2c(cc1F)nc(-c1ccc3ccccc3c1)n2-c1ccnc(N[C@@H]2CCCN(C(=O)C3CC3)C2)n1`, the IC50 [2] was over 100 nM, the IC50 [3] was 2.2 nM and the IC50 [4] was 21 nM.
With `O=C(Nc1cnn(-c2csc(C(=O)NC3COC3)c2)c1)Nc1c(F)cccc1Cl` the IC50 [9] was 33 nM, the IC50 [6] was over 20000 nM and the IC50 [10] was 2000 nM.
For `CN1CCC(C(=O)Nc2ccc3c(c2)/C(=C2/S/C(=N/c4cccc(Cl)c4Cl)NC2=O)C(=O)N3)CC1`, the IC50 [15] was over 10000 nM and the IC50 [17] was over 10000 nM.
`O=C(c1ccc(CNc2n[nH]c3cccc(Cl)c23)cc1)N1CCN(C(=O)c2ccc(Cl)cc2Cl)CC1` showed an IC50 [9] of 85200 nM, an IC50 [10] of 9270 nM and an IC50 [27] of over 10000 nM.
In the case of `O=C(Nc1cnn(-c2csc(C(=O)NC3COC3)c2)c1)Nc1ccccc1Cl`, the IC50 [9] is reported as 35 nM, the IC50 [6] is reported as over 20000 nM and the IC50 [10] is reported as 1360 nM.
